Source: patent US6570010B2, “Inclusion compounds of vanillyl alcohol derivative in cyclodextrin and compositions containing the same” (Takasago International Corporation, priority 2000, dated 2003)

Assay: Solubility in water of 20° C.
Assay type: physicochemical
Conditions: wt. %
Excerpt: In this table, vanillyl-n-butyl ether will be abbreviated as VBE.

SMILES: CCCCOCc1ccc(O)c(OC)c1 [VBE, vanillyl-n-butyl ether]
- Solubility of VBE in terms of concentration: <0.002%
